Experiment: Clearance following intravenous administration in normal subjects (heart and liver)
Assay type: in vivo, human
Text: Table II approximates the effective clearance of Technetium Tc-99 m Teboroxime from the heart and liver.

C[B-](ON=C1CCCCC1=N[O-])(ON=C1CCCCC1=NO)ON=C1CCCCC1=NO.[99Tc+3].[Cl-] [Technetium Tc-99 m Teboroxime, ^99m Tc (chlorine) (1,2-cyclohexanedione dioxime)3 methyl boron]
clearance from the circulation: rapidly cleared from the circulation
time of peak heart uptake (heart): ≤ 2 min
effective clearance, Heart (heart, 5 min): 2.3%
effective clearance, Heart (heart, 10 min): 1.7%
effective clearance, Heart (heart, 15 min): 1.5%
effective clearance, Heart (heart, 20 min): 1.3%
effective clearance, Heart (heart, 1 hr): 1.1%
effective clearance, Heart (heart, 2 hr): 0.8%
effective clearance, Heart (heart, 4 hr): 0.6%
effective clearance, Liver (5 min): 23%
effective clearance, Liver (10 min): 33%
effective clearance, Liver (15 min): 32%
effective clearance, Liver (20 min): 27%
effective clearance, Liver (1 hr): 24%
effective clearance, Liver (2 hr): 18%
effective clearance, Liver (4 hr): 17%

Source: patent US6056941A, “Kit for the preparation of technetium TC 99m teboroxime myocardial perfusion agent” (priority 1999, dated 2000)
